Experimental data reported in patent publication US5998414A, “Troponyl piperazines as dopamine D4 receptor ligands” (priority 1997, dated 1999).

Key:
[1] = target: T1, human D4 receptor (D4.2 sub-type) (Homo sapiens, UniProt P21917, DEL265-296); assay: D4 receptor displacement binding assay (3H-spiperone, membrane homogenate of stably transfected HEK 298 cells); conditions: 3H-spiperone displacement, human D4.2, HEK cells; Cheng and Prustoff transformation of IC50; read-out: D4 affinity Ki
T1 construct: expressed in transfected cells; host or cells: HEK 298 (human embryonic kidney) cells (so in the source); membrane homogenate
T1 sequence (P21917 with tags, fused parts or gaps DEL265-296): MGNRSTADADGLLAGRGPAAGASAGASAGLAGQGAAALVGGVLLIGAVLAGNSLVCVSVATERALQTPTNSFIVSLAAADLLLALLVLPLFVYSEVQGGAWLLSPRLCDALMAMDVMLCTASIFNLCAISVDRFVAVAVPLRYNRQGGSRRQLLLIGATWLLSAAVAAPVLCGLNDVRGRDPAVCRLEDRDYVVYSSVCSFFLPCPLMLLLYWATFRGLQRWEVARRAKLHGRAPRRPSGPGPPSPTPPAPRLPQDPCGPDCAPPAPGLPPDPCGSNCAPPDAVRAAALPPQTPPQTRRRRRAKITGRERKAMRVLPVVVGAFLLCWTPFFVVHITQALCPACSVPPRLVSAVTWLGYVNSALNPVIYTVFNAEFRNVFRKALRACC
Description: (§1) The potency of the test compound to reduce ^3 H-spiperone binding directly correlated to its binding affinity for the receptor.
The cells were then centrifuged in a Sorval centrifuge for 10 min, 5000 rpm (GS3 rotor) and the pellets quickly frozen in liquid nitrogen and stored at -80° C. until used in binding assay. When used in the assay, cells were thawed on ice for 20 min and then 10 ml of incubation buffer (50 mM Tris, 1 mM EDTA, 4 mM MgCl2, 5 mM KCl, 1.5 mM CaCl2, 120 mM NaCl, pH 7.4) was added. […] Concentration of receptor protein was determined using the Pierce BCA assay.
(§2) Total Spiperone Binding Assay
(§3) The plates were vortexed and incubated at room temperature for 90 minutes. The binding reaction was stopped by filtering using a Packard Harvester. The samples were filtered under vacuum over glass fibre filter plates (Whatman GF/B) presoaked for 2 hours in 0.3% polyethylenimine (PEI) in 50 mM Tris buffer (pH 7.4). The filters were then washed 6 times with 7 ml ice cold 50 mM Tris buffer (pH 7.4). The filter plates were dried overnight and 35 μl of Microscint-O (Packard) was added. The plates were sealed and counted in the Packard Top Count (3 minutes per well).
Non-specific Binding Assay for D4
The plates were vortexed and incubated at room temperature for 90 minutes at which time the binding reaction was stopped by filtering. The filters were washed and counted using the same procedure as in the total binding assay described above to give the non-specific binding value (NSB).
(§4) Displacement Binding Assay
(§5) The incubation was started by the addition, in 96-well polypropylene plates (1 mL per well), of 100 μl (50 μg protein) membrane homogenate to a solution of 200 μl incubation buffer, 100 μl ([…].) ^3 H-spiperone (90 Ci/mmol, Amersham, diluted in borosilicate glass vial) and 100 μl of test compound that was prepared from 1 mM stock dissolved in DMSO and stored at -20° C. in polypropylene cryogenic storage vials until dilution in incubation buffer in 96-well polypropylene plates. The plates were vortexed and incubated at room temperature for 90 minutes at which time the binding reaction was stopped by filtering. The filters were washed and counted using the same procedure as in the total binding assay described above to give the displacement binding value (BD).
(§6) IC50 was determined from an inhibition response curve, logit-log plot of %B/B0 vs concentration of test compound.
(§7) Ki was calculated by the Cheng and Prustoff transformation: […]
(§8) where [L] is the concentration of ^3 H-spiperone used in the assay and KD is the dissociation constant of ^3 H-spiperone determined independently under the same binding conditions.

[2] = target: human D2 receptor (short isoform) (Homo sapiens, UniProt P14416); assay: D2 receptor displacement binding assay (3H-spiperone, membrane homogenate of stably transfected GH4 C1 cells), used for D2/D4 selectivity; conditions: ratio D2/D4, 3H-spiperone displacement
Chain of human D2 receptor (short isoform) (P14416 with tags, fused parts or gaps DEL242-270): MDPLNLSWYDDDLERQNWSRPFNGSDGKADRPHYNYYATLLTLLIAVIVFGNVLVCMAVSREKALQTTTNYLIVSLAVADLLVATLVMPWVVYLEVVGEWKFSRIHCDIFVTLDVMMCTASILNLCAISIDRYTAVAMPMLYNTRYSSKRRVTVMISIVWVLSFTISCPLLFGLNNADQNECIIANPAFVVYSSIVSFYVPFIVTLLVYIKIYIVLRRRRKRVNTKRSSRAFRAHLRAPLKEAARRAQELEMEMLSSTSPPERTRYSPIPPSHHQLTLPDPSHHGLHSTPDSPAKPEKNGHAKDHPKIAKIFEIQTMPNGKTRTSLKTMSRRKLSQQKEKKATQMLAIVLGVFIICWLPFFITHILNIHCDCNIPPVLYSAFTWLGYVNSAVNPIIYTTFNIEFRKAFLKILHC
Description: as §1
GH4 C1 (rat pituitary) cells stably transfected with the human D2 receptor (short isoform) were grown in HAM'S F10 media in NUNC cell factories for 5 days. 100 μM ZnSO4 was added to the cells (the D2 promoter being zinc inducible). After 16 hours, fresh media was added to allow the cells to recover for 24 hours. The cells were harvested using versine and then centrifuged in a Sorval centrifuge for 10 minutes, at 5000 rpm (GS3 rotor). Pellets were quickly frozen in liquid nitrogen and stored at -80° C. until used in the binding assays. When used in the assay, cells were thawed on ice for 20 minutes. […] The receptor protein concentration was determined using the Pierce BCA assay.
as §2, §3
Non-specific Binding Assay for D2
This assay employed the same procedures as the non-specific binding assay for D4 with the exception that 2 μM (final conc.) of (-) sulpiride (Research Chemicals Inc.) was used in place of dopamine.
as §4, §5, §6, §7, §8

human D4.2 receptors = target: T2, human D4.2 receptors (Homo sapiens, UniProt P21917, DEL265-296); assay: Functional antagonist assay: reversal of dopamine inhibition of forskolin-stimulated adenyl cyclase (cAMP) in CHO Pro 5 cells; assay type: cell-based; conditions: dopamine and forskolin both 10 μM, read-out: % reversal of dopamine effect; for inhibition at 1 µM: 1 μM test compound; for inhibition at 10 µM: 10 μM test compound
T2 construct: expressed in transfected cells; host or cells: CHO Pro 5 cells
T2 sequence (P21917 with tags, fused parts or gaps DEL265-296): T1 sequence (P21917 with tags, fused parts or gaps DEL265-296)
Description: The D4 receptor responds to dopamine and other agonists by reducing adenyl cyclase mediated production of cyclic AMP. Particular test compounds were assayed for their ability to reverse dopamine inhibition of adenyl cyclase by the following procedure. Forskolin was used to elevate the basal adenyl cyclase activity.
CHO Pro 5 cells stably expressing human D4.2 receptors were plated in 6 well plates in DMEM (Dulbecco's Modified Eagle Medium)/F12(Nutrient Mixture F12 (Ham)) media with 10% FCS (fetal calf serum) and G418 (Geneticen Disulfate), and incubated at 37° C. in a CO2 incubator. The cells were allowed to grow to about 70% confluence before use in the assay.
The culture media of each well was removed, and the wells were washed once with serum free media (SFM) (DMEM/F12) media. Then 2 mL of fresh SFM+IBMX media (SFM with 0.5 mM IBMX, 3-isobutyl-1-methylxanthine, 0.1% ascorbic acid and 10 μM pargyline) was added to each well and then incubated at 37° C. for 10 minutes in a CO2 incubator. […] Basal adenyl cyclase activity was determined from wells with only SFM+IBMX media added.
The cells were then incubated at 37° C. for 30 minutes in a CO2 incubator. Following incubation the media was removed from each well and then washed once with 1 mL of PBS (phosphate buffered saline). […] The cells from each well were then scraped and transferred into individual Eppendorf tubes. The tubes were centrifuged for 5 min at 4° C., and the supernatants were transferred to new Eppendorf tubes.
Total inhibition (I0) of forskolin-stimulated adenyl cyclase activity by dopamine was determined as the difference in concentration of cAMP in the forskolin-treated cells (Cf) and dopamine-forskolin treated cells (Cd).
Net inhibition (I) of forskolin-stimulated adenyl cyclase activity by dopamine in the presence of an antagonist was determined as the difference in concentration of cAMP in the forskolin-treated cells (Cf) and test compound, dopamine and forskolin treated cells (C).
The ability of the test compounds to reverse the dopamine inhibition (% reversal, % R) was determined by the formula: […]

D4 receptor = conditions: background, marketed products; cited from earlier work
D2 receptor = conditions: background, marketed products; cited from earlier work

Row | SMILES | Ki [1] [nM] | D2/D4 selectivity [2] | inhibition at 1 µM (human D4.2 receptors) [%] | inhibition at 10 µM (human D4.2 receptors) [%] | Ki (D4 receptor) [nM] | preference for binding the D4 receptor relative to the D2 receptor (D2 receptor)
1 | O=c1cccccc1N1CCN(Cc2ccc3ccccc3c2)CC1 | 2.24 | 321 |  |  |  | 
2 | O=c1c(-c2cccs2)ccccc1N1CCN(Cc2ccc3c(c2)OCO3)CC1 [2-(4-Piperonyl-1-piperazinyl)7-thien2-yl-2,4,6-cycloheptatriene-1-one] | 11.9 | 34 |  |  |  | 
3 | O=c1cccccc1N1CCN(Cc2ccc3c(c2)OCO3)CC1 [2-(4-Piperonyl-1-piperazinyl)-2,4,6-cycloheptatriene-1-one] | 7.15 | 154 | 32 | 65 |  | 
4 | CCCCCCN1CCN(c2cccccc2=O)CC1 [2-(4-hexyl-1-piperazinyl)-2,4,6-cycloheptatriene-1-one] | 33.3 | 23 | 45 | 50 |  | 
5 | COc1cccc(CN2CCN(c3cccccc3=O)CC2)c1 [2-[4-(3-Methoxybenzyl)-1-piperazinyl]-2,4,6-cycloheptatriene-1-one] | 19.2 | 137 |  |  |  | 
6 | O=c1cccccc1N1CCN(Cc2cccc(Br)c2)CC1 [2-[4-(3-bromobenzyl)-1-piperazinyl]-2,4,6-cycloheptatriene-1-one] | 9.58 | 53 |  |  |  | 
7 | O=c1cccccc1N1CCN(Cc2cccc(C(F)(F)F)c2)CC1 [2-[4-(3-trifluoromethylbenzyl)-1-piperazinyl]-2,4,6-cycloheptatriene-1-one] | 21.5 | 28 |  |  |  | 
8 | O=c1cccccc1N1CCN(Cc2ccc(Br)cc2)CC1 [2-[4-(4-bromobenzyl)-1-piperazinyl]-2,4,6-cycloheptatriene-1-one] | 0.82 | 935 |  |  |  | 
9 | N#Cc1ccc(CN2CCN(c3cccccc3=O)CC2)cc1 [2-[4-(4-cyanobenzyl)-1-piperazinyl]-2,4,6-cycloheptatriene-1-one] | 29.5 | 169 |  |  |  | 
10 | Cc1ccc(CN2CCN(c3cccccc3=O)CC2)cc1 [2-[4-(4-methylbenzyl)-1-piperazinyl]-2,4,6-cycloheptatriene-1-one] | 1.46 | 443 |  |  |  | 
11 | O=c1cccccc1N1CCN(Cc2ccc([N+](=O)[O-])cc2)CC1 [2-[4-(4-nitrobenzyl)-1-piperazinyl]-2,4,6-cycloheptatriene-1-one] | 6.67 | 1014 |  |  |  | 
12 | O=c1cccccc1N1CCN(Cc2ccc(OC(F)(F)F)cc2)CC1 [2-[4-(4-trifluoromethoxybenzyl)-1-piperazinyl]-2,4,6-cycloheptatriene-1-one] | 2.18 | 367 |  |  |  | 
13 | O=c1cccccc1N1CCN(Cc2ccc(C(F)(F)F)cc2)CC1 [2-[4-(4-trifluoromethylbenzyl)-1-piperazinyl]-2,4,6-cycloheptatriene-1-one] | 4.22 | 598 |  |  |  | 
14 | O=c1c(Br)ccccc1N1CCN(Cc2ccc3c(c2)OCO3)CC1 [7-bromo-2-(4-piperonyl-1-piperazinyl)-2,4,6-cycloheptatriene-1-one] | 0.226 | 104 |  |  |  | 
15 | CN1CCN(C2=Nc3cc(Cl)ccc3Oc3ccccc32)CC1 [isoloxapine] |  |  |  |  | ~20 | about 10 fold
